Reference: patent publication US11033641B2, “Radiolabelled mGluR2/3 pet ligands” (Janssen Pharmaceutica NV, priority 2015, dated 2021)

What was measured:
human mGlu3 = molecular target: T1, human mGlu3 (Homo sapiens, UniProt Q14832); test: [3H]-compound A displacement binding, human mGlu3 HEK293 membranes; details: Glu3 HEK293, 25 nM [3H]-compound A
T1 construct: expressed in transfected cells; host or cells: HEK293
Procedure: (§1) For [^3H]-compound A (a NAM compound, selective for mGlu2/3 (˜20 fold selective for 2 over 3) vs other mGluRs) binding, membranes from human mGlu2 and mGlu3 HEK293 cells, and also rat cortical membranes, were used. After thawing, membranes were homogenized using an Ultra Turrax homogenizer and suspended in ice-cold binding buffer containing 50 mM Tris-HCl (pH 7.4), 10 mM MgCl2, 2 mM CaCl2. Displacement studies were done using 6 nM of radioligand, except for human mGlu3 membranes where 25 nM was used. Assay mixtures were incubated for 60 min at RT in a volume of 0.5 ml containing […] or 75 μg membrane protein of human mGlu2, human mGlu3 or rat cortex, respectively. Non-specific binding was estimated in the presence of […] compound B (a NAM with IC50˜10 nM against hmGlu2 and IC50˜200 nM against hmGlu3). Filtration was performed using Whatman GF/C filter sheets pre-soaked in 0.1% PEI and a Brandell harvester 96.
(§2) Filters from filters sheets were punched into vials. After the addition of scintillation liquid, radioactivity on the filters was counted in a Liquid Scintillation Analyzer from Perkin Elmer.
(§3) Radioligand competition binding data were calculated as percentage of total binding measured in the absence of test compound. Inhibition curves, plotting percentage of total binding versus the log concentration of the test compound, were generated using the Lexis software. Sigmoid inhibition curves were analyzed using non-linear regression analysis.

[1] = Ex-vivo biodistribution in SD rats; set-up: species or system Sprague Dawley rats
Procedure: Sprague-Dawley rats obtained from Harlan (the Netherlands), were housed in groups of four to six per cage until treatment. They were kept at a constant temperature of 21° C. and at a 12-h light/dark cycle, in which lights were switched on at 8:00 a.m. Animals had unrestricted access to food (Teklad Global 16% Protein Rodent Diet, Harlan, Madison, Wis., USA) and water. All animal experiments were performed in compliance with Belgium laws on animal experimentation and after approval by the local animal ethics committee.
(§4) The biodistribution of [^18F]-1 was determined at 2, 10, 30 and 60 min, after injection in Sprague Dawley (SD) rats (n=3 per time point) while for [^18F]-2 the 30 min time point was not performed. Rats were injected intravenously with 0.7-1.1 MBq via a tail vein and euthanized at the time points indicated above, under isoflurane anesthesia. All tissues were dissected, weighed and counted for radioactivity in a gamma counter.
as §4, with “Dawley” for “Dawley (SD)”, “point).” for “point) while for [^18F]-2 the 30 min time point was not performed.”

human mGlu2 = molecular target: T2, human mGlu2 (Homo sapiens, UniProt Q14416); test: [3H]-compound A displacement binding, human mGlu2 HEK293 membranes; details: Glu2 HEK293, 6 nM [3H]-compound A
T2 construct: expressed in transfected cells; host or cells: HEK293
Procedure: as §1, §2, §3

Glu2-3 rat cortex = test: [3H]-compound A displacement binding, rat cortical membranes; details: 6 nM [3H]-compound A
Procedure: as §1, §2
Radioligand competition binding data were calculated as percentage of total binding measured in the absence of test compound. […] Sigmoid inhibition curves were analyzed using non-linear regression analysis.

T1 sequence (Q14832 23-879): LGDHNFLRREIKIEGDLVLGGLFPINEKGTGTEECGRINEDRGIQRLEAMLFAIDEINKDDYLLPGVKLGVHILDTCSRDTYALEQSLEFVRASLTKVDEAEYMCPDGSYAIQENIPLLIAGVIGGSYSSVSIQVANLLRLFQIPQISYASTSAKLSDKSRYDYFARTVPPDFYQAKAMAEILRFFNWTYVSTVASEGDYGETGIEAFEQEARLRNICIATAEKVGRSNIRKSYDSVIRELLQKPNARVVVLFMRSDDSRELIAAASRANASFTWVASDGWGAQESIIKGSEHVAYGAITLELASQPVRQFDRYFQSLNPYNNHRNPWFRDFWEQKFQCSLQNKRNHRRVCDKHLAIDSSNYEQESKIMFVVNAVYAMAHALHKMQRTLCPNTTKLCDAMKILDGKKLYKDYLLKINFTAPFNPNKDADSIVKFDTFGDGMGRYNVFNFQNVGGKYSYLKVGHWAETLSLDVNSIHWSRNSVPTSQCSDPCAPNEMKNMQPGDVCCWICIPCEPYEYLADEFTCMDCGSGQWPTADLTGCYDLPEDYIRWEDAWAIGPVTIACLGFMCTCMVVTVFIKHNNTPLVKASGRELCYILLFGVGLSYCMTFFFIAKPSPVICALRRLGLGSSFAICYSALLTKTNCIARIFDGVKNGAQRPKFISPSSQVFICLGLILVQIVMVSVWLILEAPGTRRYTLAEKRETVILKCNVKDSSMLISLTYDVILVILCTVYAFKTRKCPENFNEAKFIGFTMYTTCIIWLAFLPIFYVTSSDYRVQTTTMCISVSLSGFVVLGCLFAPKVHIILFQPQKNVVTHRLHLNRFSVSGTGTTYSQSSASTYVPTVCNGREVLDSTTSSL
T2 sequence (Q14416 19-872): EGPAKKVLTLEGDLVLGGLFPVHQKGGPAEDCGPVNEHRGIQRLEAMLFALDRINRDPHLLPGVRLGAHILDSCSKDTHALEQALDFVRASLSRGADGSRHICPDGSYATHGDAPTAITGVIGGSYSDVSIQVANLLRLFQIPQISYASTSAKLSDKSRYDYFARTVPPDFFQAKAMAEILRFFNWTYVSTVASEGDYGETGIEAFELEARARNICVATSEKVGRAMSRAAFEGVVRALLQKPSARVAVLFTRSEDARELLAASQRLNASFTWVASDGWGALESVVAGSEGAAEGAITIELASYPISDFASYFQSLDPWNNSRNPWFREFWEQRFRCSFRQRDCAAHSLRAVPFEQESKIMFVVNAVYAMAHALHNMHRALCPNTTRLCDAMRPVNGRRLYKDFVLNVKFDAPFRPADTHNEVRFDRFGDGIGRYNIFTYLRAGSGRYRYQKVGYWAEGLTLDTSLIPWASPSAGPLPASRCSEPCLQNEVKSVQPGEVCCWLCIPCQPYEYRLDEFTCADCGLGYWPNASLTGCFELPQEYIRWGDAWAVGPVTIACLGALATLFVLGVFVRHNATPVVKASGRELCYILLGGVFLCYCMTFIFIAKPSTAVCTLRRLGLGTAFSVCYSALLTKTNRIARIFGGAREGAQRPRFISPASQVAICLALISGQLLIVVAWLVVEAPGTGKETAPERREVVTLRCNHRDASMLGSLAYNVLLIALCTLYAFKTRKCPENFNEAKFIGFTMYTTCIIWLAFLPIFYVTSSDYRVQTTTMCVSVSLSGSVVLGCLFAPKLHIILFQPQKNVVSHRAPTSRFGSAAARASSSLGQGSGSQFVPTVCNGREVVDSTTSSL

Eff Curve (human mGlu3): 104
IC50 (human mGlu3): 7.24 nM
Biodistribution, mean SUV ([1]; blood, 2 min after i.v. injection): 1.12 SUV
Biodistribution, mean SUV ([1]; blood, 10 min after i.v. injection): 0.74 SUV
Biodistribution, mean SUV ([1]; blood, 30 min after i.v. injection): 0.47 SUV
Biodistribution, mean SUV ([1]; blood, 60 min after i.v. injection): 0.50 SUV
Biodistribution, mean SUV ([1]; bone, 2 min after i.v. injection): 0.39 SUV
Biodistribution, mean SUV ([1]; bone, 10 min after i.v. injection): 0.34 SUV
Biodistribution, mean SUV ([1]; bone, 30 min after i.v. injection): 0.48 SUV
Biodistribution, mean SUV ([1]; bone, 60 min after i.v. injection): 0.58 SUV
Biodistribution, mean SUV ([1]; cerebellum, 2 min after i.v. injection): 2.25 SUV
Biodistribution, mean SUV ([1]; cerebellum, 10 min after i.v. injection): 3.17 SUV
Biodistribution, mean SUV ([1]; cerebellum, 30 min after i.v. injection): 3.93 SUV
Biodistribution, mean SUV ([1]; cerebellum, 60 min after i.v. injection): 4.41 SUV
Biodistribution, mean SUV ([1]; cerebrum + cerebellum, 2 min after i.v. injection): 2.03 SUV
Biodistribution, mean SUV ([1]; cerebrum + cerebellum, 10 min after i.v. injection): 3.11 SUV
Biodistribution, mean SUV ([1]; cerebrum + cerebellum, 30 min after i.v. injection): 3.98 SUV
Biodistribution, mean SUV ([1]; cerebrum + cerebellum, 60 min after i.v. injection): 4.95 SUV
Biodistribution, mean SUV ([1]; cortex, 2 min after i.v. injection): 3.50 SUV
Biodistribution, mean SUV ([1]; cortex, 10 min after i.v. injection): 8.37 SUV
Biodistribution, mean SUV ([1]; cortex, 30 min after i.v. injection): 6.96 SUV
Biodistribution, mean SUV ([1]; cortex, 60 min after i.v. injection): 8.11 SUV
Brain uptake, in words ([1]; ex-vivo biodistribution): very high
Defluorination judged from bone uptake over time ([1]; ex-vivo biodistribution): some defluorination
Peripheral uptake, in words ([1]; ex-vivo biodistribution): highest uptake in the liver
Biodistribution, mean SUV ([1]; heart, 2 min after i.v. injection): 3.54 SUV
Biodistribution, mean SUV ([1]; heart, 10 min after i.v. injection): 2.11 SUV
Biodistribution, mean SUV ([1]; heart, 30 min after i.v. injection): 1.41 SUV
Biodistribution, mean SUV ([1]; heart, 60 min after i.v. injection): 1.30 SUV
Biodistribution, mean SUV ([1]; hippocampus, 2 min after i.v. injection): 1.53 SUV
Biodistribution, mean SUV ([1]; hippocampus, 10 min after i.v. injection): 2.49 SUV
Biodistribution, mean SUV ([1]; hippocampus, 30 min after i.v. injection): 3.10 SUV
Biodistribution, mean SUV ([1]; hippocampus, 60 min after i.v. injection): 3.90 SUV
Biodistribution, mean SUV ([1]; kidneys, 2 min after i.v. injection): 4.97 SUV
Biodistribution, mean SUV ([1]; kidneys, 10 min after i.v. injection): 2.58 SUV
Biodistribution, mean SUV ([1]; kidneys, 30 min after i.v. injection): 2.08 SUV
Biodistribution, mean SUV ([1]; kidneys, 60 min after i.v. injection): 2.16 SUV
Biodistribution, mean SUV ([1]; liver, 2 min after i.v. injection): 9.74 SUV
Biodistribution, mean SUV ([1]; liver, 10 min after i.v. injection): 6.38 SUV
Biodistribution, mean SUV ([1]; liver, 30 min after i.v. injection): 4.66 SUV
Biodistribution, mean SUV ([1]; liver, 60 min after i.v. injection): 4.75 SUV
Biodistribution, mean SUV ([1]; lungs, 2 min after i.v. injection): 2.93 SUV
Biodistribution, mean SUV ([1]; lungs, 10 min after i.v. injection): 1.78 SUV
Biodistribution, mean SUV ([1]; lungs, 30 min after i.v. injection): 1.63 SUV
Biodistribution, mean SUV ([1]; lungs, 60 min after i.v. injection): 1.92 SUV
Biodistribution, mean SUV ([1]; muscle, 2 min after i.v. injection): 0.50 SUV
Biodistribution, mean SUV ([1]; muscle, 10 min after i.v. injection): 0.83 SUV
Biodistribution, mean SUV ([1]; muscle, 30 min after i.v. injection): 0.75 SUV
Biodistribution, mean SUV ([1]; muscle, 60 min after i.v. injection): 0.79 SUV
Biodistribution, mean SUV ([1]; pancreas, 2 min after i.v. injection): 4.30 SUV
Biodistribution, mean SUV ([1]; pancreas, 10 min after i.v. injection): 2.36 SUV
Biodistribution, mean SUV ([1]; pancreas, 30 min after i.v. injection): 2.06 SUV
Biodistribution, mean SUV ([1]; pancreas, 60 min after i.v. injection): 2.33 SUV
Biodistribution, mean SUV ([1]; pons, 2 min after i.v. injection): 1.53 SUV
Biodistribution, mean SUV ([1]; pons, 10 min after i.v. injection): 1.73 SUV
Biodistribution, mean SUV ([1]; pons, 30 min after i.v. injection): 1.76 SUV
Biodistribution, mean SUV ([1]; pons, 60 min after i.v. injection): 1.85 SUV
Biodistribution, mean SUV ([1]; rest of cerebrum, 2 min after i.v. injection): 2.06 SUV
Biodistribution, mean SUV ([1]; rest of cerebrum, 10 min after i.v. injection): 3.34 SUV
Biodistribution, mean SUV ([1]; rest of cerebrum, 30 min after i.v. injection): 4.37 SUV
Biodistribution, mean SUV ([1]; rest of cerebrum, 60 min after i.v. injection): 5.52 SUV
Biodistribution, mean SUV ([1]; spleen, 2 min after i.v. injection): 2.81 SUV
Biodistribution, mean SUV ([1]; spleen, 10 min after i.v. injection): 1.68 SUV
Biodistribution, mean SUV ([1]; spleen, 30 min after i.v. injection): 1.06 SUV
Biodistribution, mean SUV ([1]; spleen, 60 min after i.v. injection): 1.02 SUV
Biodistribution, mean SUV ([1]; striatum, 2 min after i.v. injection): 1.98 SUV
Biodistribution, mean SUV ([1]; striatum, 10 min after i.v. injection): 3.46 SUV
Biodistribution, mean SUV ([1]; striatum, 30 min after i.v. injection): 4.15 SUV
Biodistribution, mean SUV ([1]; striatum, 60 min after i.v. injection): 7.12 SUV
Biodistribution, mean SUV ([1]; whole cerebrum, 2 min after i.v. injection): 1.96 SUV
Biodistribution, mean SUV ([1]; whole cerebrum, 10 min after i.v. injection): 3.05 SUV
Biodistribution, mean SUV ([1]; whole cerebrum, 30 min after i.v. injection): 3.94 SUV
Biodistribution, mean SUV ([1]; whole cerebrum, 60 min after i.v. injection): 5.00 SUV
Eff Curve (human mGlu2): 93
IC50 (human mGlu2): 2.75 nM
Eff Curve (Glu2-3 rat cortex): 95
pIC50 (Glu2-3 rat cortex): 8.78
Compound: C[C@H]1CN(c2ccc(C(F)(F)F)cc2)C(=O)c2c(C#Cc3cnc(N)cc3C[18F])cnn21 [Compound 1]
